Results as given in patent US20110112104A1, “TRICYCLIC COMPOUNDS, A PROCESS FOR THEIR PREPARATION AND PHARMACEUTICAL COMPOSITIONS CONTAINING THEM” (LES LABORATOIRES SERVIER, priority 2008, published 2011).

Tested on: caspase 3
Test: Induction of caspase activity in vitro
Format: cell-based, human
Details: H146 small-cell lung carcinoma cells, compound at 10 μM, 6 hours exposure
Experimental: This study was carried out on the following human tumour cell line: • 1 small-cell lung carcinoma, H146. This cell line is cultured in an incubator at 37° C. in the presence of 5% CO2. More specifically, the H146 cells are cultured in complete RPMI 1640 medium containing 10% foetal calf serum, 2 mM glutamine, 50 units/ml of penicillin, 50 μg/ml of streptomycin and 10 mM Hepes buffer, pH=7.4. The cells are distributed onto 6-well plates and exposed to the test compounds for 6 hours. They are then collected and lysed and the caspase activity is measured in the cell lysates. This enzymatic measurement is carried out by measuring the appearance of a fluorigenic cleavage product (Pharmacia).

SMILES	caspase 3 activity in cell lysates
CN(C)CC[C@H](CSc1ccccc1)Nc1ccc(S(=O)(=O)NC(=O)c2ccc3c(n2)CC2CN(Cc4ccccc4-c4ccc(Cl)cc4)CCN32)cc1[N+](=O)[O-].Cl.Cl (stereo partly drawn) [Example 2, N-({8-[(4′-Chloro[1,1′-biphenyl]-2-yl)methyl]-6,7,8,9,9a,10-hexahydropyrido[2′,3′:4,5]pyrrolo[1,2-a]pyrazin-2-yl}carbonyl)-4-({(1R)-3-(dimethylamino)-1-[(phenylsulphanyl)methyl]propyl}amino)-3-nitro-benzenesulphonamide dihydrochloride]	9948 RFU (Relative Fluorescence Units)
CN(C)CC[C@H](CSc1ccccc1)Nc1ccc(S(=O)(=O)NC(=O)c2cnc3c(c2)CC2CN(Cc4ccccc4-c4ccc(Cl)cc4)CCN32)cc1[N+](=O)[O-].Cl.Cl.Cl (stereo partly drawn) [Example 3, N-({7-[(4′-Chloro[1,1′-biphenyl]-2-yl)methyl]-5,5a,6,7,8,9-hexahydropyrido[3′,2′:4,5]pyrrolo[1,2-a]pyrazin-3-yl}carbonyl)-4-({(1R)-3-(dimethylamino)-1-[(phenylsulphanyl)methyl]propyl}amino)-3-nitro-benzenesulphonamide trihydrochloride]	17776 RFU (Relative Fluorescence Units)
CN(C)CC[C@H](CSc1ccccc1)Nc1ccc(S(=O)(=O)NC(=O)c2cc3c(cn2)N2CCN(Cc4ccccc4-c4ccc(Cl)cc4)CC2C3)cc1[N+](=O)[O-].Cl.Cl.Cl (stereo partly drawn) [Example 1, N-({2-[(4′-Chloro[1,1′-biphenyl]-2-yl)methyl]-1,2,3,4,10,10a-hexahydropyrido[4′,3′:4,5]pyrrolo[1,2-a]pyrazin-8-yl}carbonyl)-4-({(1R)-3-(dimethylamino)-1-[(phenylsulphanyl)methyl]propyl}amino)-3-nitro-benzenesulphonamide trihydrochloride]	15395 RFU (Relative Fluorescence Units)
